In patent US10793568B2, “Hormone receptor modulators for treating metabolic conditions and disorders” (ARDELYX, INC., priority 2016, dated 2020):

Experiments:
[1] = target: ligand binding domain of human FXR (Homo sapiens (Human), UniProt Q96RI1); experiment: FXR ligand binding assay (LanthaScreen TR-FRET, SRC2-2 peptide recruitment); details: for pEC50: -log EC50, concentration required to produce 50% activation; for % Efficacy / Emax: extent of activation relative to GW4064; for Emax: read-out: % Efficacy
[2] = target: human Farnesoid X receptor ligand-binding domain/Gal4 DNA binding domain chimera (Homo sapiens (Human), UniProt Q96RI1); experiment: Cell-based assay of FXR activation (FXR-UAS-bla HEK 293T beta-lactamase reporter); details: cellular FXR beta-lactamase reporter assay; for pEC50 / EC50: FXR-UAS-bla HEK 293T cells, 16 h, pEC50 = -log EC50; for % Efficacy / Emax: extent of activation relative to GW4064; for Emax: HEK-293T, read-out: % Efficacy
Procedure, shortened: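 HEK 293T cells stably expressing a Gal4-fused human FXR LBD and a UAS-driven beta-lactamase reporter were incubated with serially diluted compounds for 16 h at 37 °C in phenol red-free DMEM with 2% charcoal-stripped FBS. CCF4 FRET read-out: excitation 409 nm, emission 447 nm. pEC50 comes from a 3-parameter logistic fit, and efficacy is given as % of GW4064.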

Sequence of ligand binding domain of human FXR (Q96RI1 262-486): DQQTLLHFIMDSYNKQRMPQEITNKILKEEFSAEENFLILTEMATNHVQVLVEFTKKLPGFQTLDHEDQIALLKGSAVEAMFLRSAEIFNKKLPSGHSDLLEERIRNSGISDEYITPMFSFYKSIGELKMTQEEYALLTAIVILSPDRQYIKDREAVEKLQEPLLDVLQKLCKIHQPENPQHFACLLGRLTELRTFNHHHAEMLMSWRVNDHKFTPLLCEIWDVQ
Sequence of human Farnesoid X receptor ligand-binding domain/Gal4 DNA binding domain chimera (Q96RI1 262-486, change not shown): as the sequence (Q96RI1 262-486) above
Sequence of human Farnesoid X receptor ligand-binding domain/Gal4 DNA binding domain chimera (P04386 1-147 partner): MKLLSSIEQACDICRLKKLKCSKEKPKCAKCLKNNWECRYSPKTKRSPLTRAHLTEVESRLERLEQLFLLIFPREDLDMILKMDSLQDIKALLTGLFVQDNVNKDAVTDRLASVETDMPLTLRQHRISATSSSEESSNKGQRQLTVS

| % Efficacy [1] | pEC50 [2] | % Efficacy [2] | Structure (SMILES) | pEC50 [1] | Emax [1] | EC50 [2] | Emax [2] |
| --- | --- | --- | --- | --- | --- | --- | --- |
| 154% | 9.6 | 108% | O=C(NS(=O)(=O)[C@H]1CC[C@@H](O)CC1)c1ccc(N2C[C@@H]3C[C@H]2C[C@H]3OCc2c(-c3c(Cl)cccc3Cl)noc2C2CC2)cc1 [Compound I-220, 4-[(1S,4S,5R)-5-{[5-cyclopropyl-3-(2,6-dichlorophenyl)-1,2-oxazol-4-yl]methoxy}-2-azabicyclo[2.2.1]heptan-2-yl]-N-{[(1s,4s)-4-hydroxycyclohexyl]sulfonyl}benzamide] | 8.7 | – | – | – |
| 147% | 9.5 | 108% | O=C(NS(=O)(=O)[C@H]1CC[C@H](O)CC1)c1ccc(N2C[C@@H]3C[C@H]2C[C@H]3OCc2c(-c3c(Cl)cccc3Cl)noc2C2CC2)cc1 [Compound I-221, 4-[(1S,4S,5R)-5-{[5-cyclopropyl-3-(2,6-dichlorophenyl)-1,2-oxazol-4-yl]methoxy}-2-azabicyclo[2.2.1]heptan-2-yl]-N-{[(1r,4r)-4-hydroxycyclohexyl]sulfonyl}benzamide] | 8.8 | – | – | – |
| – | – | – | O=C(NS(=O)(=O)CCCCCCCCCCNC(=O)[C@H](O)[C@@H](O)[C@H](O)[C@H](O)CO)c1ccc(N2C[C@@H]3C[C@H]2C[C@H]3OCc2c(-c3c(Cl)cccc3Cl)noc2C2CC2)c(F)c1 [Compound I-223, (2R,3S,4R,5R)—N-{10-[({4-[(1S,4S,5R)-5-{[5-cyclopropyl-3-(2,6-dichlorophenyl)-1,2-oxazol-4-yl]methoxy}-2-azabicyclo[2.2.1]heptan-2-yl]-3-fluorophenyl}formamido)sulfonyl]decyl}-2,3,4,5,6-pentahydroxyhexanamide] | 8.6 | 144% | < 31.6 nM | – |
| – | – | – | CC(=O)NCCCCCCCCCCS(=O)(=O)NC(=O)c1ccc(N2C[C@@H]3C[C@H]2C[C@H]3OCc2c(-c3c(Cl)cccc3Cl)noc2C2CC2)c(F)c1 [Compound I-224, N-{10-[({4-[(1S,4S,5R)-5-{[5-cyclopropyl-3-(2,6-dichlorophenyl)-1,2-oxazol-4-yl]methoxy}-2-azabicyclo[2.2.1]heptan-2-yl]-3-fluorophenyl}formamido)sulfonyl]decyl}acetamide] | 8.1 | 155% | 2.51 nM | 104% |
| – | – | – | COCC(=O)NCCCCCCCCCCS(=O)(=O)NC(=O)c1ccc(N2C[C@@H]3C[C@H]2C[C@H]3OCc2c(-c3c(Cl)cccc3Cl)noc2C2CC2)c(F)c1 [Compound I-225, N-{10-[({4-[(1S,4S,5R)-5-{[5-cyclopropyl-3-(2,6-dichlorophenyl)-1,2-oxazol-4-yl]methoxy}-2-azabicyclo[2.2.1]heptan-2-yl]-3-fluorophenyl}formamido)sulfonyl]decyl}-2-methoxyacetamide] | 9.5 | 166% | 2 nM | 103% |
| – | 6.6 | – | CC[N+](C)(CC)CCCCCCCCCCS(=O)(=O)NC(=O)c1ccc(N2C[C@@H]3C[C@H]2C[C@H]3OCc2c(-c3c(Cl)cccc3Cl)noc2C2CC2)c(F)c1 [Compound I-226] | – | 148% | – | 152% |
| – | – | – | O=C(NS(=O)(=O)CCCCCCCCCCN1CCC1)c1ccc(N2C[C@@H]3C[C@H]2C[C@H]3OCc2c(-c3c(Cl)cccc3Cl)noc2C2CC2)c(F)c1 [Compound I-227, N-[10-(azetidin-1-yl)decanesulfonyl]-4-[(1S,4S,5R)-5-{[5-cyclopropyl-3-(2,6-dichlorophenyl)-1,2-oxazol-4-yl]methoxy}-2-azabicyclo[2.2.1]heptan-2-yl]-3-fluorobenzamide] | 8.1 | 163% | 1 nM | 97% |
| – | – | – | O=C(NS(=O)(=O)C1CC1)c1ccc(N2C[C@@H]3C[C@H]2C[C@H]3OCc2c(C3CCC4(CC3)CC4)noc2C2CC2)cc1 [Compound I-228, 4-((1S,4S,5R)-5-((5-cyclopropyl-3-(spiro[2.5]octan-6-yl)isoxazol-4-yl)methoxy)-2-azabicyclo[2.2.1]heptan-2-yl)-N-(cyclopropylsulfonyl)benzamide] | 7 | 134% | 20 nM | 105% |
| – | – | – | O=C(NS(=O)(=O)C1CC1)c1ccc(N2C[C@@H]3C[C@H]2C[C@H]3OCc2c(C3CCC4(CC3)CC4)noc2C2CC2)c(F)c1 [Compound I-229, 4-((1S,4S,5R)-5-((5-cyclopropyl-3-(spiro[2.5]octan-6-yl)isoxazol-4-yl)methoxy)-2-azabicyclo[2.2.1]heptan-2-yl)-N-(cyclopropylsulfonyl)-3-fluorobenzamide] | 7.4 | 150% | 39.8 nM | 101% |
| – | – | – | O=C(NS(=O)(=O)C1CCOCC1)c1ccc(N2C[C@@H]3C[C@H]2C[C@H]3OCc2c(C3CCC4(CC3)CC4)noc2C2CC2)c(F)c1 [Compound I-230, 4-((1S,4S,5R)-5-((5-cyclopropyl-3-(spiro[2.5]octan-6-yl)isoxazol-4-yl)methoxy)-2-azabicyclo[2.2.1]heptan-2-yl)-3-fluoro-N-((tetrahydro-2H-pyran-4-yl)sulfonyl)benzamide] | 8 | 150% | 6.31 nM | 104% |
| – | – | – | O=C(NS(=O)(=O)C1CC1)c1ccc(N2C[C@H]3C[C@@H]2C[C@@H]3OCc2c(-c3c(Cl)cccc3Cl)noc2C2CC2)c(F)c1 [Compound I-231, 4-((1R,4R,5S)-5-((5-cyclopropyl-3-(2,6-dichlorophenyl)isoxazol-4-yl)methoxy)-2-azabicyclo[2.2.1]heptan-2-yl)-N-(cyclopropylsulfonyl)-3-fluorobenzamide] | 8.4 | 110% | 15.8 nM | 106% |
| – | – | – | O=C(NS(=O)(=O)C1CC1)c1ccc(N2C[C@H]3C[C@@H]2C[C@@H]3OCc2c(-c3c(Cl)cccc3Cl)noc2C2CC2)cc1 [Compound I-232, 4-((1R,4R,5S)-5-((5-cyclopropyl-3-(2,6-dichlorophenyl)isoxazol-4-yl)methoxy)-2-azabicyclo[2.2.1]heptan-2-yl)-N-(cyclopropylsulfonyl)benzamide] | 8.1 | 126% | 25.1 nM | 93% |
| – | – | – | Cn1nc(C(=O)NS(=O)(=O)C2CC2)cc1N1C[C@@H]2C[C@H]1C[C@H]2OCc1c(-c2c(Cl)cccc2Cl)noc1C1CC1 [Compound I-233, N-(cyclopropanesulfonyl)-5-[(1S,4S,5R)-5-{[5-cyclopropyl-3-(2,6-dichlorophenyl)-1,2-oxazol-4-yl]methoxy}-2-azabicyclo[2.2.1]heptan-2-yl]-1-methyl-1H-pyrazole-3-carboxamide] | 7.8 | 77% | < 31.6 nM | – |
| – | – | – | O=C(NS(=O)(=O)C1CC1)c1ccc([N+]2([O-])C[C@@H]3C[C@H]2C[C@H]3OCc2c(-c3c(Cl)cccc3Cl)noc2C2CC2)cc1 (stereo partly drawn) [Compound I-234, (1S,4S,5R)-2-{4-[(cyclopropanesulfonyl)carbamoyl]phenyl}-5-{[5-cyclopropyl-3-(2,6-dichlorophenyl)-1,2-oxazol-4-yl]methoxy}-2-azabicyclo[2.2.1]heptan-2-ium-2-olate] | 8.1 | 146% | 1.58 nM | 102% |
| – | – | – | O=C(CCc1ccc(N2C[C@@H]3C[C@H]2C[C@H]3OCc2c(-c3c(F)cccc3Cl)noc2C2CC2)c(F)c1)NS(=O)(=O)C1CCOCC1 [Compound I-235, 3-{4-[(1S,4S,5R)-5-{[3-(2-chloro-6-fluorophenyl)-5-cyclopropyl-1,2-oxazol-4-yl]methoxy}-2-azabicyclo[2.2.1]heptan-2-yl]-3-fluorophenyl}-N-(oxane-4-sulfonyl)propanamide] | 8.2 | 176% | 3.98 nM | 94% |
| – | – | – | CS(=O)(=O)NC(=O)CCc1ccc(N2C[C@@H]3C[C@H]2C[C@H]3OCc2c(-c3c(Cl)cccc3Cl)noc2C2CC2)c(F)c1 [Compound I-236, 3-(4-((1S,4S,5R)-5-((5-cyclopropyl-3-(2,6-dichlorophenyl)isoxazol-4-yl)methoxy)-2-azabicyclo[2.2.1]heptan-2-yl)-3-fluorophenyl)-N-(methylsulfonyl)propanamide] | 8.4 | 156% | 2.51 nM | 95% |
| – | – | – | O=C(CCc1ccc(N2C[C@@H]3C[C@H]2C[C@H]3OCc2c(-c3c(Cl)cccc3Cl)noc2C2CC2)c(F)c1)NS(=O)(=O)C1CC1 [Compound I-237, 3-(4-((1S,4S,5R)-5-((5-cyclopropyl-3-(2,6-dichlorophenyl)isoxazol-4-yl)methoxy)-2-azabicyclo[2.2.1]heptan-2-yl)-3-fluorophenyl)-N-(cyclopropylsulfonyl)propanamide] | 8.7 | 162% | 2.51 nM | 94% |
| – | – | – | O=C(CCc1ccc(N2C[C@@H]3C[C@H]2C[C@H]3OCc2c(-c3c(Cl)cccc3Cl)noc2C2CC2)c(F)c1)NS(=O)(=O)C1CCOCC1 [Compound I-238, 3-(4-((1S,4S,5R)-5-((5-cyclopropyl-3-(2,6-dichlorophenyl)isoxazol-4-yl)methoxy)-2-azabicyclo[2.2.1]heptan-2-yl)-3-fluorophenyl)-N-((tetrahydro-2H-pyran-4-yl)sulfonyl)propanamide] | 8.6 | 176% | 2.51 nM | 95% |
